# Measured values as given in patent publication US10849847B2, “Compositions and methods for treating rosacea and acne” (Foamix Pharmaceuticals Ltd., priority 2016, dated 2020).
# Read-outs that look alike come from different tables or passages of the source.
# How the values were obtained:
# [1] = Doxycycline Hyclate Compatibility Test; type: physicochemical; conditions: for Effect of anti-oxidant on oxidation of Doxycycline Hyclate: waterless medium of propylene glycol and PEG 200
# Protocol: (§1) A similar compatibility study was conducted for Doxycycline Hyclate and Doxycycline Monohydrate.
# (§2) Different compositions of hydrophilic and hydrophobic solvents containing Doxycycline Hyclate (Set I and Set II) and Doxycycline Monohydrate (Set III) were prepared by weighing the antibiotic in a glass vial and shaking overnight with each solvent investigated.
# Group II included Doxycycline Hyclate mixed with various vehicles with addition of antioxidants like alpha tocopherol, butylated hydroxytoluene (BHT), and ascorbic acid.
# [2] = Doxycycline Monohydrate Compatibility Test; type: physicochemical
# Protocol: as §1, §2
# A similar compatibility test was performed on another form of Doxycycline—Doxycycline Monohydrate.
# [3] = for Compatibility with Minocycline HCl: tested after the storage for up to 3 weeks; for Effect of anti-oxidant on oxidation of Minocycline HCl: waterless medium of propylene glycol and PEG 200; for Compatibility with Minocycline HCl (observations): on dissolution / storage
# Protocol: The ratio between MCH and the tested excipient is detailed below. Visual inspection was the major criterion for indication of compatibility. The color of intact MCH suspension is pale yellow; and any change of color (e.g., to dark orange, red, green, brown and black) indicates oxidation or degradation.
# Other than hydrogenated castor oil, beeswax, paraffin and hard fat, the aforesaid items listed are oily emollients.
# Additives were tested for compatibility with MCH. […] In parallel, antioxidants were added to the MCH suspensions comprising water.
# [4] = Doxycycline Monohydrate Compatibility Test; type: physicochemical; conditions: waterless medium of propylene glycol and PEG 200
# [5] = test system: papulopustular rosacea; conditions: cited from earlier work; for IGA = Clear/Almost Clear / Inflammatory Lesions: Mean Absolute Reduction / ≥2 IGA Grade Reduction: Week 16
# [6] = Phase I PK study in adults with acne: topical minocycline foam 4% for 21 days vs single oral dose of minocycline (FX2014-03); type: in vivo, human; conditions: Period 1, single oral dose ~1 mg/kg minocycline, Day 1-5; for AUC(0-inf) / AUC / Cmax / half-life / Tmax: both sexes, human, plasma, po, 1 mg/kg
# Protocol: Each application was approximately 4 g (a maximal-use dose). […] On the day of initial dosing (Day 1), subjects checked into the clinic where they were confined until 1 hour after study drug was administered. Predose clinical assessments were performed and a 1 mL blood sample for PK analysis was obtained before study drug was administered.
# SUBJECTS: Adults were eligible for this study if they were 18 to 35 years of age; children were eligible for the pediatric study if they were 9 to 16 years and 11 months of age and in good health, as judged on the basis of their medical history and the screening procedures. They were required to have moderate-to-severe facial acne vulgaris as well as acne affecting at least two additional regions of the body (neck, upper chest, upper back, or arms).
# On days 6, 9, 10, 11, and 16, blood samples were obtained at approximately 30 minutes before the scheduled application. […] After the final application, subjects were asked to return for additional blood sampling on days 23, 24, and 25.
# BIOANALYTICAL METHODS: Blood samples were collected and centrifuged, and the separated plasma was stored at approximately −70° C.
# Actual sample collection times were used for the purpose of calculating pharmacokinetic parameters. […] Geometric mean was calculated for Cmax, AUC0-tldc, AUC0-inf, and AUC0-tau, and the harmonic mean was calculated for t1/2. Analysis of multiple-dose accumulation, determination of steady state, and other pertinent comparisons of pharmacokinetic parameters across or between doses were performed using the appropriate statistical methods. […] The CIs were expressed as a percentage relative to the LSM of the reference treatment.
# [7] = tested after the storage for up to 3 weeks
# [8] = hydrophilic solvents, MCH:excipient 1:250, 25° C. and 40° C., maximum sixty days
# [9] = surfactants solubilized in mineral oil, MCH:excipient 1:50
# [10] = oily emollients, MCH:excipient 1:250, 25° C. and 40° C., maximum sixty days
# [11] = foam adjuvants, MCH:excipient 1:50
# [12] = mixtures stored at 25° C., 40° C. and 50° C. for two weeks
compound,measurement,setting,value
CC(O)CO (stereo not drawn) [Propylene glycol],Compatibility with Doxycycline Hyclate,[1]; [7],No
same,Compatibility with Doxycycline Monohydrate,[2]; [7],No
same,Compatibility with MCH,[3]; [8],incompatible
same,Compatibility with Minocycline HCl,[3],No
BHA/BHT,Effect of antioxidant on MCH degradation,[3],did not prevent MCH degradation
SPAN 80,Compatibility with MCH,[3]; [9],incompatible
CCCCCCCCCCCCCC(=O)OC(C)C [Isopropyl myristate],Compatibility with MCH,[3]; [10],compatible
O=C1O[C@H]([C@@H](O)CO)C(O)=C1O [ascorbic acid],Effect of anti-oxidant on oxidation of Doxycycline Hyclate,[1],did not prevent the oxidation
same,Effect of anti-oxidant on oxidation of Doxycycline Monohydrate,[4],did not prevent the oxidation
same,Effect of anti-oxidant on oxidation of Minocycline HCl,[3],did not prevent the oxidation
CCCCCCCC/C=C\CCCCCCCCO [Oleyl alcohol],Compatibility with Doxycycline Hyclate,[1]; [7],Yes
same,Compatibility with MCH,[3]; [11],compatible
same,Compatibility with Minocycline HCl,[3],Yes
C[C@H]1c2cccc(O)c2C(=O)C2=C(O)[C@]3(O)C(=O)C(C(N)=O)=C(O)[C@@H](N(C)C)[C@@H]3[C@@H](O)[C@@H]21 [Oracea],Baseline IGA Moderate,"[5]; Study 1, Active",52.8%
same,Baseline IGA Severe,"[5]; Study 1, Active",40.9%
same,Inflammatory Lesions: Baseline No. of lesions,"[5]; Study 1, Active",19.5
same,Baseline IGA Moderate,"[5]; Study 2, Active",54.2%
same,Baseline IGA Severe,"[5]; Study 2, Active",33.8%
same,Inflammatory Lesions: Baseline No. of lesions,"[5]; Study 2, Active",20.5
same,IGA = Clear/Almost Clear,"[5]; Study 1, Active",30.7%
same,Inflammatory Lesions: Mean Absolute Reduction,"[5]; Study 1, Active",−11.8
same,≥2 IGA Grade Reduction,"[5]; Study 1, Active",45.7%
same,IGA = Clear/Almost Clear,"[5]; Study 2, Active",14.8%
same,Inflammatory Lesions: Mean Absolute Reduction,"[5]; Study 2, Active",−9.5
same,≥2 IGA Grade Reduction,"[5]; Study 2, Active",22.5%
CCCCCCCC/C=C\CCCCCCCC(=O)O [Oleic acid],Compatibility with MCH,[3]; [11],compatible
OCCCCO [Butylene Glycol],Compatibility with Doxycycline Hyclate,[1]; [7],No
same,Compatibility with Doxycycline Monohydrate,[2]; [7],No
same,Compatibility with MCH,[3]; [8],incompatible
same,Compatibility with Minocycline HCl,[3],No
C[Si]1(C)O[Si](C)(C)O[Si](C)(C)O[Si](C)(C)O[Si](C)(C)O1 [Cyclomethicone 5 NF],Compatibility with Doxycycline Hyclate,[1]; [7],Yes
same,Compatibility with Doxycycline Monohydrate,[2]; [7],Yes
same,Compatibility with Minocycline HCl,[3],Yes
Cyclomethicone,Compatibility with MCH,[3]; [10],compatible
CCCCCCCCCCCCCCCCCCCCCCO [Behenyl alcohol],Compatibility with MCH,[3]; [11],compatible
CCCCCCCCCCCCCCCCCC(=O)OCC(O)CO (stereo not drawn) [Glyceryl monostearate],Compatibility with MCH,[3]; [9],incompatible
Cc1c(C)c2c(c(C)c1O)CC[C@@](C)(CCC[C@H](C)CCC[C@H](C)CCCC(C)C)O2 [alpha-tocopherol],Effect of anti-oxidant on oxidation of Doxycycline Hyclate,[1],did not prevent the oxidation
same,Effect of anti-oxidant on oxidation of Doxycycline Monohydrate,[4],did not prevent the oxidation
same,Effect of antioxidant on MCH degradation,[3],did not prevent MCH degradation
same,Effect of anti-oxidant on oxidation of Minocycline HCl,[3],did not prevent the oxidation
CCCCCCCCCCCCCCO [Myristyl alcohol],Compatibility with Doxycycline Hyclate,[1]; [7],Yes
same,Compatibility with MCH,[3]; [11],compatible
same,Compatibility with Minocycline HCl,[3],Yes
CCCCCCCCCCC(CO)CCCCCCCC (stereo not drawn) [Octyl dodecanol],Compatibility with Doxycycline Hyclate,[1]; [12],incompatibility
same,Compatibility with Doxycycline Hyclate,[1]; [7],No
same,Compatibility with Doxycycline Monohydrate,[2]; [12],incompatibility
same,Compatibility with Doxycycline Monohydrate,[2]; [7],No
same,Compatibility with MCH,[3]; [10],compatible
same,Compatibility with Minocycline HCl (observations),[3],full compatibility
same,Compatibility with Minocycline HCl,[3],Yes
Sorbitan Monostearate,Compatibility with Doxycycline Hyclate,[1]; [7],Yes
same,Compatibility with Minocycline HCl,[3],Yes
OCC(O)CO [Glycerin],Compatibility with Doxycycline Hyclate,[1]; [7],No
same,Compatibility with Doxycycline Monohydrate,[2]; [7],No
same,Compatibility with MCH,[3]; [8],incompatible
same,Compatibility with Minocycline HCl (observations),[3],intensive oxidation
same,Compatibility with Minocycline HCl,[3],No
CN(C)c1ccc(O)c2c1C[C@H]1C[C@H]3[C@H](N(C)C)C(O)=C(C(N)=O)C(=O)[C@@]3(O)C(O)=C1C2=O [Solodyn],"kel, Mean",[6],0.044 h⁻¹
same,"kel, Median",[6],0.04 h⁻¹
same,AUC(0-inf),"[6]; read-out: AUC0-inf, Geometric Mean",15100 ng·h/mL
same,AUC(0-inf),"[6]; read-out: AUC0-inf, Mean",15500 ng·h/mL
same,AUC(0-inf),"[6]; read-out: AUC0-inf, Median",15600 ng·h/mL
same,AUC,"[6]; read-out: AUC0-tldc, Geometric Mean",14800 ng·h/mL
same,AUC,"[6]; read-out: AUC0-tldc, Mean",15200 ng·h/mL
same,AUC,"[6]; read-out: AUC0-tldc, Median",15400 ng·h/mL
same,Cmax,"[6]; read-out: Cmax, Geometric Mean",850 ng/mL
same,Cmax,"[6]; read-out: Cmax, Mean",873 ng/mL
same,Cmax,"[6]; read-out: Cmax, Median",801 ng/mL
same,half-life,"[6]; read-out: T1/2, Harmonic Mean (converted)",15.8 h
same,half-life,"[6]; read-out: T1/2, Mean (converted)",16 h
same,half-life,"[6]; read-out: T1/2, Median (converted)",15.9 h
same,Tmax,"[6]; read-out: Tmax, Mean",2.7 h
same,Tmax,"[6]; read-out: Tmax, Median",3 h
Sorbitan Monolaurate,Compatibility with Doxycycline Hyclate,[1]; [7],No
same,Compatibility with Doxycycline Monohydrate,[2]; [7],No
same,Compatibility with Minocycline HCl,[3],No
CC(C)CCCCCCCCCCCCCCCO [Isostearyl alcohol],Compatibility with MCH,[3]; [11],compatible
CCCCCCCCCCCCCCCC(=O)O [Palmitic acid],Compatibility with MCH,[3]; [11],compatible
CCCCCCCCCCCCCCCCCCO [Stearyl alcohol],Compatibility with Doxycycline Hyclate,[1]; [7],Yes
same,Compatibility with MCH,[3]; [11],compatible
same,Compatibility with Minocycline HCl,[3],Yes
CC(C)OC(=O)CCCCC(=O)OC(C)C [diisopropyl adipate],Compatibility with Doxycycline Hyclate,[1]; [7],Yes
same,Compatibility with Doxycycline Monohydrate,[2]; [7],No
same,Compatibility with MCH,[3]; [10],compatible
same,Compatibility with Minocycline HCl,[3],Yes
CCOCCOCCO [Diethylene glycol monoethyl ether],Compatibility with MCH,[3]; [8],incompatible
Sorbitan sesquistearate,Compatibility with MCH,[3]; [9],incompatible
CCCCCCCCCCCCCCCCCC(=O)O [Stearic acid],Compatibility with MCH,[3]; [11],compatible
CCCCCCCCCCCCCCCCO [Cetyl alcohol],Compatibility with MCH,[3]; [11],compatible
SPAN 40,Compatibility with MCH,[3]; [9],incompatible
CCCOC(=O)c1cc(O)c(O)c(O)c1 [propyl gallate],Effect of antioxidant on MCH degradation,[3],did not prevent MCH degradation
CC1CCC(C(C)C)C(O)C1 (stereo not drawn) [Menthol],Compatibility with MCH,"[3]; additives, MCH:excipient 1:50",compatible
CC(O)CC(C)(C)O (stereo not drawn) [Hexylene Glycol],Compatibility with Doxycycline Monohydrate,[2]; [12],oxidized
same,Compatibility with Doxycycline Monohydrate,[2]; [7],No
same,Compatibility with MCH,[3]; [8],incompatible
same,Compatibility with Minocycline HCl,[3],No
CO[C@H]1CO[C@H]2[C@@H]1OC[C@H]2OC [Dimethyl Isosorbide],Compatibility with Doxycycline Hyclate,[1]; [7],No
same,Compatibility with Doxycycline Monohydrate,[2]; [7],No
same,Compatibility with MCH,[3]; [8],incompatible
same,Compatibility with Minocycline HCl,[3],No
CC(C)CCCCCCCCCCCCCCC(=O)O [Isostearic acid],Compatibility with Doxycycline Hyclate,[1]; [7],Yes
same,Compatibility with MCH,[3]; [11],not compatible
same,Compatibility with Minocycline HCl,[3],No
C[S+](C)[O-] [Dimethyl Sulfoxide],Compatibility with MCH,[3]; [8],incompatible
SPAN 60,Compatibility with MCH,[3]; [9],incompatible
